Several values for one entry are separate records, joined by “and”; a condition that tells them apart may be missing. Equal values may be shown once. Read-outs that look alike come from different tables or passages of the source.
Legend:
[1] = Bulk and tapped density of ladostigil tartrate crystals; format: physicochemical; details: crystals from the alternative isopropanol process
Source text: This alternative process, which can be performed without the seeding step, is better suited for use in a pilot scale and a production scale than a method that follows PCT Application Publication No. WO98/27055.

[2] = Wet granulation experiments: compatibility with water and ethanol; format: physicochemical
Experimental: The manufacturing process was changed from the dry granulation process to a wet-granulation process as a result of the flow problem with the active ingredient. Water and ethanol are the two most common agents used in wet granulation. Granulation experiments were first performed with water. […] Therefore, granulation experiments based on the CC formulation were performed with isopropanol.

[3] = Pharmacokinetic analysis in Alzheimer's disease patients; format: in vivo, human
Experimental: Pharmacokinetic analysis was performed on Week 4 (maintenance analysis) and on Week 9 (termination analysis). At maintenance analysis (M), samples were collected pre-dose and at 0.25, 0.5, 1, 2, and 3 hours post-dose. At termination analysis (T), samples were collected pre-dose and at 0.25, 0.5, 1, 2, 3, 4, 6, and […].
The concentration measurements are expressed in nmol/ml and the t1/2 is expressed in terms of hours.

[4] = system: 3,4-dihydroxyphenylglycol (DHPG) in plasma; experiment: Decrease of DHPG plasma concentration in patients, HPLC with electrochemical detector; format: in vivo, human
Experimental: Decrease of 3,4-dihydroxyphenylglycol (“DHPG”) in plasma is indicative of monoamine oxidase inhibition, especially in the brain. DHPG plasma concentrations were measured in 6 of the aforementioned patients at baseline and at termination analysis, using HPLC equipped with an electrochemical detector.
The decrease in DHPG concentration in the six patients was determined. The average decrease in DHPG concentration was determined to be 57% with a standard deviation of 29.

Cholinesterase = Cholinesterase inhibition at pre-dose in patients; format: in vivo, human; details: pre-dose administration, at maintenance and at termination analyses
Source text: Cholinesterase inhibition at pre-dose administration both at maintenance and at termination analyses was also evident.

Substance: R(+)-6-(N-methyl, N-ethyl-carbamoyloxy)-N′-propargyl-1-aminoindan [Ladostigil Tartrate]
- bulk density [1]: 0.22 to 0.29 g/mL
- tapped density [1]: 0.38 to 0.54 g/mL
- Compatibility with ethanol ([2]; wet granulation agent): incompatible with ethanol
- Stability in the presence of water ([2]; wet granulation with water): unstable in the presence of water
- t1/2 ([3]; half life at termination analysis Week 9): 1.08 h
- AUC ladostigil (M) ([3]; individual patients 1-8, maintenance analysis Week 4, 100 mg twice daily, tablets of Table 9): 314 ng·h/mL and 589 ng·h/mL and 1005 ng·h/mL and 927 ng·h/mL and 436 ng·h/mL and 551 ng·h/mL and 52 ng·h/mL and 500 ng·h/mL
- AUC ladostigil (T) ([3]; individual patients 1-8, termination analysis Week 9, 100 mg twice daily, tablets of Table 9): 246 ng·h/mL and 2305 ng·h/mL and 1449 ng·h/mL and 482 ng·h/mL and 398 ng·h/mL and 901 ng·h/mL and 118 ng·h/mL and 350 ng·h/mL
- Cmax ([3]; individual patients 1-8, termination analysis Week 9, 100 mg twice daily, read-out: Cmax ladostigil (T)): 700 nM and 3800 nM and 3900 nM and 1600 nM and 1000 nM and 2500 nM and 400 nM and 1300 nM
- Cmax ([3]; mean after dosing, maintenance analysis Week 4, read-out: Cmax): 2020 nM
- Cmax ([3]; mean after dosing, termination analysis Week 9, read-out: Cmax (T)): 1880 nM
- Cmin (M) ([3]; mean concentration at pre-dose (12 hours after previous dose), maintenance analysis Week 4): 1.64e-08 M
- Cmin (T) ([3]; mean concentration at pre-dose (12 hours after previous dose), termination analysis Week 9): 10.9 nM
- DHPG (T) (%) ([4]; individual patients, termination analysis Week 9 versus baseline): −63% and −86% and >−79% and −73% and −30% and −13%
- average decrease in DHPG concentration ([4]; six patients, termination analysis, standard deviation of 29): 57%
- Cholinesterase inhibition (Cholinesterase): evident
